Assays:
[1] = Pharmacokinetics of the compounds in sprague-dawley rats (oral and IV bolus, plasma LC/MS/MS); type: in vivo
Procedure: Compounds were administered to rats orally at a dose of 4-5 mg/kg using PEG-400 as a vehicle. Selected compounds were also administered as an IV bolus at a dose of 1 mg/kg. Plasma samples were obtained from either the portal or jugular veins and analyzed by LC/MS/MS for both the parent pyrimidine-2,4-diamine and the prodrug compounds synthesized in the examples above. Bioavailability was calculated using the AUC of pyrimidine-2,4-diamine in jugular vein samples and the AUC of an IV bolus dose of pyrimidine-2,4-diamine. For selected compounds, portal vein samples were evaluated for both prodrug and pyrimidine-2,4-diamine and the information was used to determine the percent absorption of the orally administered dose.

[2] = Metabolic stability of prodrugs in rat hepatic microsomes; type: in vitro ADME; conditions: in the presence of NADPH, first value of cell, read-out: T1/2 (half-life of prodrug)
Procedure: (§1) Selected compounds were incubated in rat and human hepatic microsomes (with and without NADPH) and analyzed by LC/MS/MS for both the prodrug and pyrimidine-2,4-diamine.
(§2) Studies were conducted in microsomes to determine whether the prodrug moieties could be hydrolyzed by CYP450 enzymes.

[3] = Metabolic stability of prodrugs in human hepatic microsomes; type: in vitro ADME; conditions: in the presence of NADPH, second value of cell, read-out: T1/2 (half-life of prodrug)
Procedure: as §1, §2

% of prodrug absorbed ([1]; AUC of prodrug in portal vein after oral dose vs AUC in jugular vein after IV dose, dose-corrected) [%]	clearance ([1]; Sprague-Dawley, rat, plasma, IV bolus 1 mg/kg, read-out: Clearance rate of prodrug) [mL/min/kg]	half-life [2] [min]	half-life [3] [min]	Structure (SMILES)
20	72	< 5	< 5	COc1cc(N(C(=O)OCCN2CCOCC2)c2ncc(F)c(Nc3ccc4c(n3)NC(=O)C(C)(C)O4)n2)cc(OC)c1OC [Example 2, N4-(2,2-Dimethyl-3-oxo-4H-5-pyrido[1,4]oxazin-6-yl)-5-fluoro-N2-[[2-(morpholin-4-yl)ethoxy]carbonyl]-N2-(3,4,5-trimethoxyphenyl)-2,4-pyrimidinediamine]
		< 5	< 5	COc1cc(N(C(=O)OCC2CCCCN2C)c2ncc(F)c(Nc3ccc4c(n3)NC(=O)C(C)(C)O4)n2)cc(OC)c1OC (centres unmarked) [Example 3]

Structure (SMILES)	% of prodrug absorbed ([1]; AUC of prodrug in portal vein after oral dose vs AUC in jugular vein after IV dose, dose-corrected) [%]	clearance ([1]; Sprague-Dawley, rat, plasma, IV bolus 1 mg/kg, read-out: Clearance rate of prodrug) [mL/min/kg]	half-life [2] [min]	half-life [3] [min]
COc1cc(N(C(=O)N[C@H](C(=O)OC(C)(C)C)C(C)C)c2ncc(F)c(Nc3ccc4c(n3)NC(=O)C(C)(C)O4)n2)cc(OC)c1OC [Example 8, 1S—N2-[[-1-(t-Butoxycarbonyl)-2-methylpropyl]aminocarbonyl]-N4-(2,2-dimethyl-3-oxo-4H-5-pyrido[1,4]oxazin-6-yl)-5-fluoro-N2-(3,4,5-trimethoxyphenyl)-2,4-pyrimidinediamine]			35	10
